Counter-ions that a name gives are not always drawn.
Key:
MDCK cells = assay: Inhibition of PGE2-stimulated in vitro cyst formation in 3D culture of MDCK cells; format: cell-based; conditions: total cyst area (%) compared to 100% for (DMSO + PGE2) and 0% for DMSO control, 300 nM PGE2
Method: HEK 293 and MDCK cells (Public Health England, Cell Culture Collections) were maintained in Dulbecco's Modified Eagle's Medium (DMEM) supplemented with 10% (v/v) fetal bovine serum (FBS) (Seralab), 2 mM L-glutamine and 100 U/ml penicillin streptomycin cocktail (ThermoFisher); termed complete media. Clonal HEK 293 cell lines were maintained in complete media supplemented with 0.6 mg/mL G418 (Enzo Life Sciences). Mouse inner medullary collecting duct (m-IMCD3) cells [American Type Culture Collection (ATCC)] were maintained in media consisting of DMEM/Hams F-12 50/50 Mix (DMEM F12; Corning) supplemented with penicillin streptomycin cocktail (100 U/ml) and FBS (10% v/v) (DMEM F12-10% FBS).
In this study, the well-established three-dimensional (3D) MDCK cell model is used to investigate the effects of PDE4 long form activators on the formation of kidney cysts and evaluate their potential in the treatment of polycystic kidney diseases. 3D cysts are generated based on the method of Mao et al. (Mao, Z., Streets, A. J., Ong, A. C. M. Am. J. Physiol. Renal Physiol. 300 (6): F1375-F1384, 2011), with some modifications.
The assay is conducted in the wells of a 96-well plate culture dish using a total volume of 130 μl of collagen suspension in growth media for each matrix plug per individual well. Rat Collagen I (Fisher Scientific) is prepared on ice by neutralising with 1M NaOH and diluting with a 2×volume of DMEM-2% FBS. 30 μl of collagen/Media mix is added into the well of a 96 well plate and the collagen is set to a gel by incubating at 37° C. for at least 15 minutes. A second layer of 100 μl collagen/Matrigel suspension containing MDCK cells (1.0×10^4 MDCK cells per well) is then layered over the first layer and the collagen/cell mix again set to a gel by incubating at 37° C. 100 μl DMEM growth media is added and cells are incubated at 37° C. for 24 hours. 24 hours after cell seeding, DMEM-2% FBS is added along with the test compound indicated in the presence of 300 nM prostaglandin E2 (PGE2) (Sigma Aldrich) in quadruplicate wells per condition. Media, together with the test compound and PGE2 are replenished every 3 days for 10-15 days.
After 10-15 days of culture z stack images of the wells are captured using the Nikon Eclipse Ti2-E microscope. Nikon General Analysis software is used to measure the following parameters in each well: the mean cyst area, the number of cysts, and the total cyst area.
PDE4 long form activators inhibited in vitro cyst formation in MDCK cells. Data are shown in Table 6 as total cyst area (%), compared to 100% for (DMSO+PGE2) and 0% for DMSO control.

m-IMCD3 cells = assay: Inhibition of PGE2-stimulated in vitro cyst formation in 3D culture of m-IMCD3 cells; format: cell-based, mouse; conditions: Mus musculus, mIMCD3, 144 h; 10 μM test compound; mean cyst area (%) compared to 100% for (DMSO + PGE2) and 0% for DMSO control; 100 nM PGE2; 6 days; read-out: % Cyst area after incubation with 10 μM test compound
How it was run: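 Mouse m-IMCD3 cells grown in 3D collagen I/Matrigel gels. From 18-24 h after plating, compound (0.1% DMSO) plus 100 nM PGE2 were added and replenished at 2-3 days. After 6 days, imaging gave mean cyst area, scaled to 100% for DMSO+PGE2 and 0% for DMSO alone.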

m-IMCD3 cell culture = assay: Reduction of cAMP levels in m-IMCD3 cell culture media (cAMP ELISA); format: cell-based, mouse; conditions: compared to 100% for (DMSO + PGE2)
Source text: Experiment 4a: Reduction of cAMP Levels in m-IMCD3 Cell Culture Treated with PDE4 Long Form Activators Activation of intracellular PDE4 long forms leads to a reduction of both intracellular cAMP and externalised cAMP (Omar et al., PNAS 116: 13320-13329, 2019). This reduction may be measured in the cell culture media supernatant of 3D cystic cell cultures, such as in the m-IMCD3 cell cyst suppression assay described in Experiment 4.
Following the completion of the m-IMCD3 cell cyst suppression assay, the cAMP levels in the assay media from individual assay wells was measured using a cAMP ELISA kit (Enzo Life Sciences) according to the manufacturer's instructions.
Treatment with PDE4 long form activators reduced cAMP levels in PGE2-stimulated m-IMCD3 cell culture.

PDE4D5 = target: T1, PDE4D5 (Homo sapiens, UniProt Q08499); assay: PDE assay, activation of full-length human PDE4D5 long form ([3H]cAMP radio-assay); format: biochemical; conditions: 30 μM test compound; mean % increase in counts over basal activity
T1 construct: Using Full-Length Human PDE4 Isoforms: Long Forms PDE4D5, PDE4C3, PDE4B1 and Short Form PDE4B2; made in house; cytosol fraction of the cell lysate, not purified
How it was run: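 Cytosol (100,000 g) from HEK293 cells overexpressing full-length human PDE4 was preincubated with compound for 15 min at room temperature in 10 mM Tris/5 mM MgCl2. Reaction ran with 1 μM [3H]cAMP for 10 min at 30° C, then snake venom conversion, Dowex separation and scintillation counting; activity reported as % increase.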

PDE4B2 = target: T2, PDE4B2 (Homo sapiens, UniProt Q07343); assay: PDE assay, activity of full-length human PDE4B2 short form ([3H]cAMP radio-assay); format: biochemical; conditions: 30 μM test compound; mean % increase in counts over basal activity
T2 construct: the full length human PDE4B2 short isoform; made in house; cytosol fraction of the lysate by analogy to PDE4D5
Source text: Experiment 1: Measurement of Modulation of Enzyme Activity by PDE4 Long Form Activators of the Present Invention Using Full-Length Human PDE4 Isoforms: Long Forms PDE4D5, PDE4C3, PDE4B1 and Short Form PDE4B2
(Marchmont, R. J. and Houslay, M. D. Biochem. J. 187: 381-92, 1980)
For transient transfection of exogenous PDE4 long isoforms, HEK 293 cells were transfected with pcDNA3.1 or pDEST™ PDE4 expression vectors using Lipofectamine LTX/Plus reagent (Invitrogen) as outlined by the manufacturer.
Where stable cell lines were generated the clonal isolates were expanded to obtain cell lines that stably expressed the full-length human PDE4 long isoforms and the full length human PDE4B2 short isoform. These were called the HEK-PDE4D5, HEK-PDE4B1 and HEK-PDE4B2 cell lines, respectively.
HEK-PDE4D5 cells were seeded out in 100 mm plates and incubated at 37° C. in an atmosphere of 5% CO2, 95% air. Cell lysates were prepared using KHEM buffer [50 mM KCl, 10 mM EGTA, 50 mM HEPES (pH 7.2), 1.92 mM MgCl2].
To prepare the cell lysates, the 100 mm plates containing the cells were placed on ice and washed with ice-cold PBS (phosphate buffered saline, pH 7.4). KHEM buffer (500 μl) was added to the cells. Cells were then scraped off the plate and triturated using a needle (BD Microlance™ 0.8, 40 mm). The lysed cells were then centrifuged at 2000 rpm for 10 minutes to remove cell debris and the supernatant (cell lysate containing recombinant PDE4D5) was transferred to a fresh tube and kept on ice.
The cell lysate containing recombinant PDE4D5 was transferred into a centrifuge tube and placed into an ultracentrifuge (BECKMAN COULTER) and spun at high speed (100,000 g) for 30 minutes at 4° C. The cytosol fraction was then collected and its protein amount determined using a BCA protein assay.
PDE assays were performed in thin walled V-bottomed 96-well plates. The assays were performed at a final concentration of 10 mM Tris/5 mM MgCl2 μlus PDE4D5 cell lysate cytosol fraction, containing over-expressed PDE4D5, with and without test compound. The lysate/compound mix were incubated together for 15 min at room temperature on an orbital shaker prior to addition of [^3H] cAMP (final concentration 1 μM [^3H] cAMP; Perkin Elmer) to a final volume of 50 μl per reaction. The reactions were then incubated for 10 minutes at 30° C., terminated by heating for 2 min at 95° C. and allowed to cool. Snake venom (12.5 μl of 1 mg/ml; Crotalus atrox, Sigma) was then added and the plates were agitated and incubated for a further 15 minutes at 30° C. Dowex ion exchange resin (Sigma, chloride form, 200-400 mesh; 200 μl; prepared as a 1:1 Dowex: water stock, thoroughly re-suspended and diluted 2:1 with ethanol) was then added to each well and the plates incubated for 15 min at room temperature on an orbital shaker ensuring sufficient agitation for resin suspension (550 RPM). The reaction mixture was then transferred to a 96 well filter plate (Millipore; […] pore size) and filtered into a receiving 96-well plate to remove the dowex suspension. 30 μL of the filtered solution was then transferred to the wells of an Opti-plate (Perkin Elmer) 96 well assay plate and 120 μl of Microscint 40 scintillation fluid was added. The plate was then placed on an orbital shaker for 10 min at high speed (900 RPM) to mix the sample with scintillation fluid prior to quantitation using a plate based scintillation counter (Top-Count).
The % increase in counts in the presence of test compound at a particular concentration indicates the % increase in enzyme activity at that concentration.

T2 sequence (Q07343 1-564 isoform Q07343-2): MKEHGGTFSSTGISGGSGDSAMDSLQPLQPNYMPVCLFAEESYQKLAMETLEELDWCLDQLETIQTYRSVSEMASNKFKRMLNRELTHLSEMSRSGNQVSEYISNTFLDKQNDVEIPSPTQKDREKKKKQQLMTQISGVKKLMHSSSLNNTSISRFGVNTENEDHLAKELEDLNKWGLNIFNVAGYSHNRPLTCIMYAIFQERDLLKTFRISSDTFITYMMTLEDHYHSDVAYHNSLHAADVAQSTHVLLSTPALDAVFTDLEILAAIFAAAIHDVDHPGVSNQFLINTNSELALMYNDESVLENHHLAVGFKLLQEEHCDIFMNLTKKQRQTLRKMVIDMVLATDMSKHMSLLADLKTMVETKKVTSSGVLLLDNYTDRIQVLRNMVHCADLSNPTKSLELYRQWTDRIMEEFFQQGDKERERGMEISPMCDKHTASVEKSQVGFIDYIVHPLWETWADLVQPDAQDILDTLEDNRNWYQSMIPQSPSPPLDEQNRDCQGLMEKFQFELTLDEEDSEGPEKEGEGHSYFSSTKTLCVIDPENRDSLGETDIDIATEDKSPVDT
T1 sequence (Q08499 1-745 isoform Q08499-6): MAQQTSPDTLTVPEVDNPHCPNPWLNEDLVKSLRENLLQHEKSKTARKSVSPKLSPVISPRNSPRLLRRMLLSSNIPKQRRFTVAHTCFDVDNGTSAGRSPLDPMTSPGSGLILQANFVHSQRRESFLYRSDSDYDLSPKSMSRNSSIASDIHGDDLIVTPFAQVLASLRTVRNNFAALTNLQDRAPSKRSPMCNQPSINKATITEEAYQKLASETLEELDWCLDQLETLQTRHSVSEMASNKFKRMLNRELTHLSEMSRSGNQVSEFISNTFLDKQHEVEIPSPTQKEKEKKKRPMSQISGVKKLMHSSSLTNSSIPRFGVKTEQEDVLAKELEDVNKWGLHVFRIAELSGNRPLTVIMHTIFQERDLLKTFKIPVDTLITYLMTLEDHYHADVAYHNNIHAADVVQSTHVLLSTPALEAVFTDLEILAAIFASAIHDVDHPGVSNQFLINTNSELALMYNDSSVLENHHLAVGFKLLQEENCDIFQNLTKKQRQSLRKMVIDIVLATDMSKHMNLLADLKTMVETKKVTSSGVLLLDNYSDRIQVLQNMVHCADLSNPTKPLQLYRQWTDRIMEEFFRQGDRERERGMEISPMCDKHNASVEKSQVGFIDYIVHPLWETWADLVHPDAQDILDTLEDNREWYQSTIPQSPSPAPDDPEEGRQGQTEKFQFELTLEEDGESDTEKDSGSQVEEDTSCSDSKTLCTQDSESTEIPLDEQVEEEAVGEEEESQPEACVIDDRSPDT

| activation at 30 µM (PDE4D5) [%] | % increase in PDE4B2 activity at 30 μM* (PDE4B2) [%] | SMILES | % Cyst area after incubation with 1 μM test compound (MDCK cells) [%] | activity at 10 µM (m-IMCD3 cells) [%] | other results |
| --- | --- | --- | --- | --- | --- |
| – | – | O=C(N[C@H]1CCOc2ccccc21)c1ccc2nc(N3CCNCC3)sc2c1 [Example 83, (S)-N-(chroman-4-yl)-2-(piperazin-1-yl)benzo[d]thiazole-6-carboxamide hydrochloride] | −1 | 6 | – |
| – | – | CN1CCC(c2nc3ccc(C(=O)NC4CCCC4)cc3s2)CC1 [Example 151, N-cyclopentyl-2-(1-methylpiperidin-4-yl)benzo[d]thiazole-6-carboxamide] | – | 10 | cAMP level (% of PGE2-stimulated) after incubation with 10 μM test compound (m-IMCD3 cell culture): 54% |
| – | – | O=C(NC1CCC(F)(F)CC1)c1ccc2nc(C3CCN(CCO)CC3)sc2c1 [Example 174, N-(4,4-difluorocyclohexyl)-2-(1-(2-hydroxyethyl)piperidin-4-yl)benzo[d]thiazole-6-carboxamide] | – | – | cAMP level (% of PGE2-stimulated) after incubation with 10 μM test compound (m-IMCD3 cell culture): 27% |
| 31 | 9 | CCN1CCC(c2nc3c(C)cc(C(=O)N[C@H]4CCOc5ccccc54)cc3s2)CC1 [Example 187, (S)-N-(chroman-4-yl)-2-(1-ethylpiperidin-4-yl)-4-methylbenzo[d]thiazole-6-carboxamide] | – | – | – |
| 30 | −3 | CCN1CCN(c2nc3c(C)cc(C(=O)N[C@H]4CCOc5ccccc54)cc3s2)CC1 [Example 212, (S)-N-(chroman-4-yl)-2-(4-ethylpiperazin-1-yl)-4-methylbenzo[d]thiazole-6-carboxamide] | – | – | – |
| 88 | −2 | CCN1CCN(c2nc3cc(C)c(C(=O)N[C@H]4CCOc5ccccc54)cc3s2)CC1 [Example 216, (S)-N-(chroman-4-yl)-2-(4-ethylpiperazin-1-yl)-5-methylbenzo[d]thiazole-6-carboxamide] | – | -5 | – |
| 36 | 0 | CCN1CCN(c2nc3ccc(C(=O)N[C@H]4CCOc5ccccc54)c(C)c3s2)CC1 [Example 220, (S)-N-(chroman-4-yl)-2-(4-ethylpiperazin-1-yl)-7-methylbenzo[d]thiazole-6-carboxamide] | – | – | – |
| – | – | COc1c(C(=O)NC2CCCC2)ccc2nc(N3C4CCC3CNC4)sc12 [Example 236, 2-(3,8-diazabicyclo[3.2.1]octan-8-yl)-N-cyclopentyl-7-methoxybenzo[d]thiazole-6-carboxamide] | 20 | – | – |
| – | – | CC(C)NC(=O)c1cc(C#N)c2nc(N3C4CCC3CNC4)sc2c1 [Example 238, 2-(3,8-diazabicyclo[3.2.1]octan-8-yl)-4-cyano-N-isopropylbenzo[d]thiazole-6-carboxamide] | 24 | – | – |
| – | – | O=C(NC1CCC(F)(F)CC1)c1ccc2nc(N3C4CCC3CNC4)sc2c1 [Example 240, 2-(3,8-diazabicyclo[3.2.1]octan-8-yl)-N-(4,4-difluorocyclohexyl)-benzo[d]thiazole-6-carboxamide] | – | 5 | cAMP level (% of PGE2-stimulated) after incubation with 10 μM test compound (m-IMCD3 cell culture): 41% |
| – | – | O=C(NC1CCC(F)(F)CC1)c1ccc2nc(N3CC4CCC(C3)N4)sc2c1 [Example 245, 2-(3,8-diazabicyclo[3.2.1]octan-3-yl)-N-(4,4-difluorocyclohexyl)-benzo[d]thiazole-6-carboxamide] | 4 | – | – |
| – | – | O=C(NC1CCC(F)(F)CC1)c1ccc2nc(N3CC4CCC(C3)N4CCO)sc2c1 [Example 247, N-(4,4-difluorocyclohexyl)-2-(8-(2-hydroxyethyl)-3,8-diazabicyclo[3.2.1]octan-3-yl)benzo[d]thiazole-6-carboxamide] | 1 | – | – |
| – | – | CN1CCN(c2nc3ccc(C(=O)NC4CCCC4)cc3s2)CC12CC2 [Example 260, N-cyclopentyl-2-(4-methyl-4,7-diazaspiro[2.5]octan-7-yl)benzo[d]thiazole-6-carboxamide] | 11 | – | – |

| SMILES | activation at 30 µM (PDE4D5) [%] | % increase in PDE4B2 activity at 30 μM* (PDE4B2) [%] | % Cyst area after incubation with 1 μM test compound (MDCK cells) [%] | activity at 10 µM (m-IMCD3 cells) [%] | other results |
| --- | --- | --- | --- | --- | --- |
| CCN1CC2CCC(C1)N2c1nc2ccc(S(=O)(=O)NC3CCC(F)(F)CC3)cc2s1 [Example 290, N-(4,4-difluorocyclohexyl)-2-(3-ethyl-3,8-diazabicyclo[3.2.1]octan-8-yl)benzo[d]thiazole-6-sulfonamide] | 47 | 11 | – | 16 | – |
